IC50 data for 25 compounds are collected here from patent US9890147B2 (BAYER PHARMA AKTIENGESELLSCHAFT, priority 2012, dated 2018).

Molecules are shown by their SMILES.

For one assay, the target named is T1, BRD4 (BD1) (Homo sapiens, UniProt O60885).
T1 construct: with relatively long constructs also being possible, preferably amino acids 44-168; made in house; host or cells: E. coli
Briefly: Binding assay BRD4/acetylated peptide H4 (TR-FRET protein-protein interaction assay). The essentials: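 His6-BRD4 BD1 (aa 67-152, E. coli), usually 10 nM, with biotinylated tetra-acetylated H4 peptide in HEPES pH 7.5 buffer; 11 compound concentrations 0.1 nM–20 μM in duplicate, 10 min preincubation, 1 h at 22 °C then ≥3 h at 4 °C. TR-FRET 665/620 ratio; IC50 by 4-parameter fit.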
In general terms: In TR-FRET formats the signal depends on donor and acceptor labels being close together.

The next assay relates to MOLM-13 cells. The experiment in a line: Cell proliferation assay (alamarBlue), MOLM-13. Type of assay: cell-based. The note with it: 96 hours incubation, inhibition of cell proliferation. The essentials:
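Cells in RPMI1640/10% FCS read by alamarBlue fluorescence (ex 530, em 590 nm) after overnight 37 °C incubation, then treated at 1E-5 to 1E-8 M for 96 h. Pre-treatment values subtracted from endpoint values and compared with buffer-only wells; IC50 is 50% proliferation inhibition.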
Background: Resazurin is reduced to fluorescent resorufin, in cell work by metabolically active cells.

Regarding `CNC(=O)N1N=C(c2ccc(N3CCOC(C)C3=O)cc2)c2cc(OC)c(OC)cc2CC1C` (racemic) [Example 42, (±)-7,8-dimethoxy-N,4-dimethyl-1-[4-(2-methyl-3-oxomorpholin-4-yl)phenyl]-4,5-dihydro-3H-2,3-benzodiazepine-3-carboxamide], the IC50 on BRD4 (BD1) stood at 200 nM; with MOLM-13 cells (Homo sapiens), 1290 nM.
The like results for `CNC(=O)N1N=C(c2ccc(N3CC(C)(O)C3)cc2)c2cc(OC)c(OC)cc2C[C@@H]1C` [Example 185.2, (4S)-1-[4-(3-hydroxy-3-methylazetidin-1-yl)phenyl]-7,8-dimethoxy-N,4-dimethyl-4,5-dihydro-3H-2,3-benzodiazepine-3-carboxamide] were, in that order, 30 nM and 100 nM.
On the same counts, the results for `CNC(=O)N1N=C(c2ccc(N3CCN(Cc4ccccc4)CC3=O)cc2)c2cc(OC)c(OC)cc2CC1C` (racemic) [Example 36, (±)-1-[4-(4-benzyl-2-oxopiperazin-1-yl)phenyl]-7,8-dimethoxy-N,4-dimethyl-4,5-dihydro-3H-2,3-benzodiazepine-3-carboxamide] are 260 nM and 1160 nM.
Regarding `CNC(=O)N1N=C(c2ccc(-n3ccc(-c4ccc(F)cc4)n3)cc2)c2cc(OC)c(OC)cc2CC1C` (racemic) [Example 150, (±)-1-{4-[3-(4-fluorophenyl)-1H-pyrazol-1-yl]phenyl}-7,8-dimethoxy-N,4-dimethyl-4,5-dihydro-3H-2,3-benzodiazepine-3-carboxamide], the IC50 on BRD4 (BD1) worked out at 80 nM; in the assay on MOLM-13 cells (Homo sapiens), 480 nM.
The like results for `CNC(=O)N1N=C(c2ccc(-c3c(C)noc3C)cc2)c2cc(Cl)c(OC)cc2C[C@@H]1C` [Example 157.1, (4S)-8-chloro-1-[4-(3,5-dimethylisoxazol-4-yl)phenyl]-7-methoxy-N,4-dimethyl-4,5-dihydro-3H-2,3-benzodiazepine-3-carboxamide] were, in that order, 130 nM and 120 nM.
As for `CC[C@H]1Cc2cc(OC)c(OC)cc2C(c2ccc(N3CCN(S(C)(=O)=O)CC3)cc2)=NN1C(=O)NC` [Example 203.1, (4S)-4-ethyl-7,8-dimethoxy-N-methyl-1-{4-[4-(methylsulphonyl)piperazin-1-yl]phenyl}-4,5-dihydro-3H-2,3-benzodiazepine-3-carboxamide], the half-inhibitory concentration (IC50) at BRD4 (BD1) worked out at 260 nM; in the assay with MOLM-13 cells (Homo sapiens), 1270 nM.
Turning to `CNC(=O)N1N=C(c2ccc(Cl)cc2)c2cc(OCCN3CCCC3)ccc2CC1C` (centres unmarked) [Example 33], the figures for the 50% inhibitory concentration (IC50) at BRD4 (BD1) and in the assay on MOLM-13 cells were 770 nM and 3310 nM, respectively.
Consider `CNC(=O)N1N=C(c2ccc(-c3ccc(OC(F)(F)F)cc3)cc2)c2cc(OC)c(OC)cc2CC1C` (racemic) [Example 95, (±)-7,8-dimethoxy-N,4-dimethyl-1-[4′-(trifluoromethoxy)biphenyl-4-yl]-4,5-dihydro-3H-2,3-benzodiazepine-3-carboxamide], for which the results for the IC50 on BRD4 (BD1) and in the assay on MOLM-13 cells (Homo sapiens) were 630 nM and 2760 nM, respectively.
As to `CNC(=O)N1N=C(c2ccc(-c3cccc(C(=O)N4CCOCC4)c3)cc2)c2cc(OC)c(OC)cc2CC1C` (racemic) [Example 98, (±)-7,8-dimethoxy-N,4-dimethyl-1-[3′-(morpholin-4-ylcarbonyl)biphenyl-4-yl]-4,5-dihydro-3H-2,3-benzodiazepine-3-carboxamide], the IC50 on BRD4 (BD1) was found to be 30 nM; in the assay on MOLM-13 cells (Homo sapiens), 270 nM.
The like results for `CNC(=O)N1N=C(c2ccc(-c3cnn(C)c3)cc2)c2cc(OC)ccc2C[C@@H]1C` [Example 21, (4S)-8-methoxy-N,4-dimethyl-1-[4-(1-methyl-1H-pyrazol-4-yl)phenyl]-4,5-dihydro-3H-2,3-benzodiazepine-3-carboxamide] were, in that order, 130 nM and 560 nM.
With `CNC(=O)N1N=C(c2ccc(-c3ccc(N4CCOCC4)cc3)cc2)c2cc(OC)c(OC)cc2CC1C` (racemic) [Example 110, (±)-7,8-dimethoxy-N,4-dimethyl-1-[4′-(morpholin-4-yl)biphenyl-4-yl]-4,5-dihydro-3H-2,3-benzodiazepine-3-carboxamide], the figures for the IC50 at BRD4 (BD1) and with MOLM-13 cells (Homo sapiens) were 60 nM and 360 nM, respectively.
As to `COc1cc2c(cc1OC)C(c1ccc(-c3c(C)noc3C)cc1)=NN(C(C)=O)C(C)C2` (racemic) [Example 246, (±)-1-{1-[4-(3,5-dimethyl-1,2-oxazol-4-yl)phenyl]-7,8-dimethoxy-4-methyl-4,5-dihydro-3H-2,3-benzodiazepin-3-yl}ethanone], the IC50 on BRD4 (BD1) was 330 nM; in the assay on MOLM-13 cells (Homo sapiens), 2060 nM.
`CNC(=O)N1N=C(c2ccc(N3CCN(C(C)=O)CC3)cc2)c2cc(OC)c(OC)cc2C[C@H]1C` [Example 132.1, (4R)-1-[4-(4-acetylpiperazin-1-yl)phenyl]-7,8-dimethoxy-N,4-dimethyl-4,5-dihydro-3H-2,3-benzodiazepine-3-carboxamide]: the values for the IC50 at BRD4 (BD1) and in the assay on MOLM-13 cells (Homo sapiens) were 4080 nM and 7560 nM, respectively.
As for `CNC(=O)N1N=C(c2ccc(N3CCC(C)(NC(=O)OC(C)(C)C)CC3)cc2)c2cc(OC)c(OC)cc2CC1C` (racemic) [Example 191, (±)-tert-butyl (1-{4-[7,8-dimethoxy-4-methyl-3-(methylcarbamoyl)-4,5-dihydro-3H-2,3-benzodiazepin-1-yl]phenyl}-4-methylpiperidin-4-yl)carbamate], the IC50 on BRD4 (BD1) came to 70 nM; in the assay on MOLM-13 cells (Homo sapiens) it was 170 nM.
Consider `CNC(=O)N1N=C(c2ccc(F)c(-c3c(C)nn(C)c3C)c2)c2cc(OC)c(OC)cc2CC1C` (racemic) [Example 56, (±)-1-[4-fluoro-3-(1,3,5-trimethyl-1H-pyrazol-4-yl)phenyl]-7,8-dimethoxy-N,4-dimethyl-4,5-dihydro-3H-2,3-benzodiazepine-3-carboxamide], for which the IC50 on BRD4 (BD1) was 180 nM; in the assay with MOLM-13 cells (Homo sapiens) it was 900 nM.
On the same counts, the results for `CNC(=O)N1N=C(c2ccc(-c3c(C)noc3C)cc2)c2cc(OC)c(C#N)cc2CC1C` (racemic) [Example 170, (±)-7-Cyano-1-[4-(3,5-dimethylisoxazol-4-yl)phenyl]-8-methoxy-N,4-dimethyl-4,5-dihydro-3H-2,3-benzodiazepine-3-carboxamide] are 70 nM and 520 nM.
Turning to `CNC(=O)N1N=C(c2ccc(-c3cccn3C)cc2)c2cc(OC)c(OC)cc2CC1C` (racemic) [Example 116, (±)-7,8-dimethoxy-N,4-dimethyl-1-[4-(1-methyl-1H-pyrrol-2-yl)phenyl]-4,5-dihydro-3H-2,3-benzodiazepine-3-carboxamide], the IC50 at BRD4 (BD1) worked out at 70 nM; in the assay with MOLM-13 cells (Homo sapiens) it was 490 nM.
On the same counts, the results for `CNC(=O)N1N=C(c2ccc(-c3c(C)noc3C)cc2)c2cc(NC(C)=O)ccc2CC1C` (racemic) [Example 173, (±)-8-Acetamido-1-[4-(3,5-dimethylisoxazol-4-yl)phenyl]-N,4-dimethyl-4,5-dihydro-3H-2,3-benzodiazepine-3-carboxamide] are 180 nM and 1210 nM.
The like results for `CNC(=O)N1N=C(c2ccc(-c3ccc(S(=O)(=O)NC)cc3)cc2)c2cc(OC)c(OC)cc2CC1C` (racemic) [Example 115, (±)-7,8-dimethoxy-N,4-dimethyl-1-[4′-(methylsulphamoyl)biphenyl-4-yl]-4,5-dihydro-3H-2,3-benzodiazepine-3-carboxamide] were, in that order, 50 nM and 460 nM.
The like results for `CNC(=O)N1N=C(c2ccc(-c3cccc(C(=O)NC4CC4)c3)cc2)c2cc(OC)c(OC)cc2CC1C` (racemic) [Example 99, (±)-1-[3′-(cyclopropylcarbamoyl)-biphenyl-4-yl]-7,8-dimethoxy-N,4-dimethyl-4,5-dihydro-3H-2,3-benzodiazepine-3-carboxamide] were, in that order, 30 nM and 270 nM.
For the compound `CNC(=O)N1N=C(c2cccc(N3CC(F)(F)C3)c2)c2cc(OC)c(OC)cc2CC1C` (racemic) [Example 141, (±)-1-[3-(3,3-difluoroazetidin-1-yl)phenyl]-7,8-dimethoxy-N,4-dimethyl-4,5-dihydro-3H-2,3-benzodiazepine-3-carboxamide], the IC50 on BRD4 (BD1) was found to be 70 nM; in the assay with MOLM-13 cells (Homo sapiens), 550 nM.
Regarding `CNC(=O)N1N=C(c2ccc(-c3c(C)noc3C)cc2)c2cc(N3CCOCC3)ccc2C[C@@H]1C` [Example 176.2, (4S)-1-[4-(3,5-Dimethylisoxazol-4-yl)phenyl]-N,4-dimethyl-8-(morpholin-4-yl)-4,5-dihydro-3H-2,3-benzodiazepine-3-carboxamide], the figures for the half-maximal inhibitory concentration (IC50) at BRD4 (BD1) and in the assay on MOLM-13 cells (Homo sapiens) were 40 nM and 250 nM, respectively.
On to `CNC(=O)N1N=C(c2ccc(N3CCS(=O)(=O)CC3)cc2)c2cc(Cl)c(OC(F)(F)F)cc2CC1C` (racemic) [Example 210, (±)-8-chloro-1-[4-(1,1-dioxidothiomorpholin-4-yl)phenyl]-N,4-dimethyl-7-(trifluoromethoxy)-4,5-dihydro-3H-2,3-benzodiazepine-3-carboxamide], for which the figures for the IC50 on BRD4 (BD1) and with MOLM-13 cells (Homo sapiens) were 250 nM and 170 nM, respectively.
As to `CNC(=O)N1N=C(c2ccc(-c3ccc(O)nc3)cc2)c2cc(OC)c(OC)cc2C[C@@H]1C` [Example 49.1, (4S)-1-[4-(6-hydroxypyridin-3-yl)phenyl]-7,8-dimethoxy-N,4-dimethyl-4,5-dihydro-3H-2,3-benzodiazepine-3-carboxamide], the figures for the IC50 at BRD4 (BD1) and in the assay with MOLM-13 cells (Homo sapiens) were 20 nM and 230 nM, respectively.
On the same counts, the results for `CNC(=O)N1N=C(c2ccc(-c3ccc(C(=O)NC4CC4)cc3)cc2)c2cc(OC)c(OC)cc2CC1C` (racemic) [Example 83, (±)-1-[4′-(cyclopropylcarbamoyl)biphenyl-4-yl]-7,8-dimethoxy-N,4-dimethyl-4,5-dihydro-3H-2,3-benzodiazepine-3-carboxamide] are 30 nM and 450 nM.

Broadly, the IC50 is the concentration that gives 50% inhibition. Lower therefore signals inhibition by little substance.
